Consider 38 compounds from US11192865B2, “Benzosulfonyl compounds” (Vivace Therapeutics, Inc., priority 2017, dated 2021).

The structures appear in SMILES notation.

In general, IC50 refers to the concentration at which inhibition is half-maximal.

The test system of the assay is 8XTBD luciferase reporter. Description: YAP Reporter Assay. The note with it: Homo sapiens, HEK-293T; HEK293T cells stably transfected with 8XTBD luciferase reporter and pRLTK; 24-hr incubation; starting from 3 μM, 1:3 dilution, 10 points; read-out: Firefly Luciferase IC50. In kind it is cell-based. Put shortly:
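HEK293T cells stably carrying the 8XTBD firefly luciferase reporter and TK-renilla control received compounds at a 10-point, 1:3 series from 3 μM (final) in quadruplicate. After 24 h at 37° C, Dual-Glo luminescence was read. IC50 and maximal inhibition were reported separately for firefly and renilla signals.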
Turning to `CNS(=O)(=O)c1ccc(NC2CCCCC2)c(-c2nnnn2C2CCCNC2)c1` (centres unmarked) [Compound 75, 4-(cyclohexylamino)-N-methyl-3-(1-(piperidin-3-yl)-1H-tetrazol-5-yl)benzenesulfonamide], the IC50 lay within 1 to 3 µM.

Turning to `CNS(=O)(=O)c1ccc(NC2CCCCC2)c(-c2cccc(N)n2)c1` [Compound 76, 3-(6-aminopyridin-2-yl)-4-(cyclohexylamino)-N-methylbenzenesulfonamide], the IC50 was in the range of 0.1 to 1 µM.

For `CNS(=O)(=O)c1ccc(NC2CCCCC2)c(-c2cccnc2)c1` [Compound 77, 4-(cyclohexylamino)-N-methyl-3-(pyridin-3-yl)benzenesulfonamide], the IC50 was more than 3 µM.

Consider `CNS(=O)(=O)c1ccc(NC2CCCCC2)c(-c2ncccc2C)c1` [Compound 78, 4-(cyclohexylamino)-N-methyl-3-(3-methylpyridin-2-yl)benzenesulfonamide], for which the IC50 was more than 3 µM.

Regarding `CNS(=O)(=O)c1ccc(NC2CCCCC2)c(-c2ncccc2F)c1` [Compound 79, 4-(cyclohexylamino)-3-(3-fluoropyridin-2-yl)-N-methylbenzenesulfonamide], the IC50 is not above 0.1 µM.

`CNS(=O)(=O)c1ccc(NC2CCCCC2)c(-c2ncccc2OC)c1` [Compound 80, 4-(cyclohexylamino)-3-(3-methoxypyridin-2-yl)-N-methylbenzenesulfonamide]: the IC50 lay in the range of 1 to 3 µM.

For the compound `CNS(=O)(=O)c1ccc(NC2CCCCC2)c(-n2nccn2)c1` [Compound 81, 4-(Cyclohexylamino)-N-methyl-3-(2H-1,2,3-triazol-2-yl)benzenesulfonamide], the IC50 is not above 0.1 µM.

On to `CNS(=O)(=O)c1ccc(NC2CCCCC2)c(-c2cn(C)cn2)c1` [Compound 82, 4-(cyclohexylamino)-N-methyl-3-(1-methyl-1H-imidazol-4-yl)benzenesulfonamide], for which the IC50 is not above 0.1 µM.

Turning to `CNS(=O)(=O)c1ccc(NC2CCCCC2)c(-c2cccc(N(C)C)n2)c1` [Compound 83, 4-(cyclohexylamino)-3-(6-(dimethylamino)pyridin-2-yl)-N-methylbenzenesulfonamide], the IC50 was more than 3 µM.

Turning to `CNS(=O)(=O)c1ccc(NC2CCCCC2)c(-c2cc(N)ccn2)c1` [Compound 84, 3-(4-aminopyridin-2-yl)-4-(cyclohexylamino)-N-methylbenzenesulfonamide], the IC50 is 0.1 to 1 µM.

With `CNc1cccc(-c2cc(S(=O)(=O)NC)ccc2NC2CCCCC2)n1` [Compound 85, 4-(cyclohexylamino)-N-methyl-3-(6-(methylamino)pyridin-2-yl)benzenesulfonamide], the IC50 was 1 to 3 µM.

With `CNS(=O)(=O)c1ccc(NC2CCCCC2)c(-c2nnn(C3CCCN(c4cccnc4)C3)n2)c1` (centres unmarked) [Compound 86, 4-(cyclohexylamino)-N-methyl-3-(2-(1-(pyridin-3-yl)piperidin-3-yl)-2H-tetrazol-5-yl)benzenesulfonamide], the IC50 fell in the range of 0.1 to 1 µM.

Consider `CNS(=O)(=O)c1ccc(NC2CCCCC2)c(-c2cc(N(C)C)ccn2)c1` [Compound 87, 4-(cyclohexylamino)-3-(4-(dimethylamino)pyridin-2-yl)-N-methylbenzenesulfonamide], for which the IC50 was not above 0.1 µM.

As to `CNc1ccnc(-c2cc(S(=O)(=O)NC)ccc2NC2CCCCC2)c1` [Compound 88, 4-(cyclohexylamino)-N-methyl-3-(4-(methylamino)pyridin-2-yl)benzenesulfonamide], the IC50 was not above 0.1 µM.

For the compound `CNS(=O)(=O)c1ccc(NC2CCCCC2)c(-n2ccnn2)c1` [Compound 89, 4-(cyclohexylamino)-N-methyl-3-(1H-1,2,3-triazol-1-yl)benzenesulfonamide], the IC50 is more than 3 µM.

As for `CNS(=O)(=O)c1ccc(Nc2ccccc2)c(-c2nnn(C)n2)c1` [Compound 90, N-methyl-3-(2-methyl-2H-tetrazol-5-yl)-4-(phenylamino)benzenesulfonamide], the IC50 is not above 0.1 µM.

For the compound `CNS(=O)(=O)c1ccc(NC2CCCCC2)c(-c2nc(C)no2)c1` [Compound 91, 4-(cyclohexylamino)-N-methyl-3-(3-methyl-1,2,4-oxadiazol-5-yl)benzenesulfonamide], the IC50 lay in the range of 0.1 to 1 µM.

`CNS(=O)(=O)c1ccc(Nc2cccc(C(F)(F)F)c2)c(-c2nnn(C)n2)c1` [Compound 92, N-methyl-3-(2-methyl-2H-tetrazol-5-yl)-4-((3-(trifluoromethyl)phenyl)amino)benzenesulfonamide]: the IC50 was not above 0.1 µM.

In the case of `CNS(=O)(=O)c1ccc(Nc2ccccc2C(F)(F)F)c(-c2nnn(C)n2)c1` [Compound 93, N-methyl-3-(2-methyl-2H-tetrazol-5-yl)-4-((2-(trifluoromethyl)phenyl)amino)benzenesulfonamide], the IC50 is more than 3 µM.

On to `CNS(=O)(=O)c1ccc(Nc2cccc(OC(F)(F)F)c2)c(-c2nnn(C)n2)c1` [Compound 94, N-methyl-3-(2-methyl-2H-tetrazol-5-yl)-4-((3-(trifluoromethoxy)phenyl)amino)benzenesulfonamide], for which the IC50 was not above 0.1 µM.

As to `CNS(=O)(=O)c1ccc(Nc2ccc(C(F)(F)F)cc2)c(-c2nnn(C)n2)c1` [Compound 95, N-methyl-3-(2-methyl-2H-tetrazol-5-yl)-4-((4-(trifluoromethyl)phenyl)amino)benzenesulfonamide], the IC50 was not above 0.1 µM.

Turning to `CNS(=O)(=O)c1ccc(Nc2ccc(C(F)(F)F)cc2)c(-c2nnnn2C)c1` [Compound 96, N-methyl-3-(1-methyl-1H-tetrazol-5-yl)-4-((4-(trifluoromethyl)phenyl)amino)benzenesulfonamide], the IC50 is more than 3 µM.

Turning to `CNS(=O)(=O)c1ccc(Nc2cccc(C(F)(F)F)c2)c(-c2nnnn2C)c1` [Compound 97, N-methyl-3-(1-methyl-1H-tetrazol-5-yl)-4-((3-(trifluoromethyl)phenyl)amino)benzenesulfonamide], the IC50 was more than 3 µM.

On to `CNS(=O)(=O)c1ccc(Nc2ccccc2C(F)(F)F)c(-c2nnnn2C)c1` [Compound 98, N-methyl-3-(1-methyl-1H-tetrazol-5-yl)-4-((2-(trifluoromethyl)phenyl)amino)benzenesulfonamide], for which the IC50 is more than 3 µM.

With `CNS(=O)(=O)c1ccc(Nc2ccc(OC(F)(F)F)cc2)c(-c2nnnn2C)c1` [Compound 99, N-methyl-3-(1-methyl-1H-tetrazol-5-yl)-4-((4-(trifluoromethoxy)phenyl)amino)benzenesulfonamide], the IC50 is more than 3 µM.

As for `CNS(=O)(=O)c1ccc(Nc2cccc(OC(F)(F)F)c2)c(-c2nnnn2C)c1` [Compound 100, N-methyl-3-(1-methyl-1H-tetrazol-5-yl)-4-((3-(trifluoromethoxy)phenyl)amino)benzenesulfonamide], the IC50 was more than 3 µM.

Consider `CNS(=O)(=O)c1ccc(Nc2ccccc2OC(F)(F)F)c(-c2nnnn2C)c1` [Compound 101, N-methyl-3-(1-methyl-1H-tetrazol-5-yl)-4-((2-(trifluoromethoxy)phenyl)amino)benzenesulfonamide], for which the IC50 was more than 3 µM.

With `CNS(=O)(=O)c1ccc(Nc2ccccc2OC(F)(F)F)c(-c2nnn(C)n2)c1` [Compound 102, N-methyl-3-(2-methyl-2H-tetrazol-5-yl)-4-((2-(trifluoromethoxy)phenyl)amino)benzenesulfonamide], the IC50 is more than 3 µM.

For the compound `CNS(=O)(=O)c1ccc(Nc2ccc(OC(F)(F)F)cc2)c(-c2nnn(C)n2)c1` [Compound 103, N-methyl-3-(2-methyl-2H-tetrazol-5-yl)-4-((4-(trifluoromethoxy)phenyl)amino)benzenesulfonamide], the IC50 is not above 0.1 µM.

As for `CNS(=O)(=O)c1ccc(Nc2cccc(F)c2F)c(-c2nnn(C)n2)c1` [Compound 104, 4-((2,3-difluorophenyl)amino)-N-methyl-3-(2-methyl-2H-tetrazol-5-yl)benzenesulfonamide], the IC50 is 0.1 to 1 µM.

Consider `CNS(=O)(=O)c1ccc(NC2CCCCC2)c(-c2nnc(C)o2)c1` [Compound 105, 4-(cyclohexylamino)-N-methyl-3-(5-methyl-1,3,4-oxadiazol-2-yl)benzenesulfonamide], for which the IC50 was not above 0.1 µM.

`CNS(=O)(=O)c1ccc(Nc2cccc(F)c2F)c(-c2nnnn2C)c1` [Compound 106, 4-((2,3-difluorophenyl)amino)-N-methyl-3-(1-methyl-1H-tetrazol-5-yl)benzenesulfonamide]: the IC50 is more than 3 µM.

As for `CNS(=O)(=O)c1ccc(Nc2cc(F)cc(F)c2)c(-c2nnnn2C)c1` [Compound 107, 4-((3,5-difluorophenyl)amino)-N-methyl-3-(1-methyl-1H-tetrazol-5-yl)benzenesulfonamide], the IC50 is more than 3 µM.

`CNS(=O)(=O)c1ccc(Nc2cc(F)cc(F)c2)c(-c2nnn(C)n2)c1` [Compound 108, 4-((3,5-difluorophenyl)amino)-N-methyl-3-(2-methyl-2H-tetrazol-5-yl)benzenesulfonamide]: the IC50 fell in the range of 0.1 to 1 µM.

Consider `CNS(=O)(=O)c1ccc(Nc2cc(F)ccc2F)c(-c2nnnn2C)c1` [Compound 109, 4-((2,5-difluorophenyl)amino)-N-methyl-3-(1-methyl-1H-tetrazol-5-yl)benzenesulfonamide], for which the IC50 was more than 3 µM.

For the compound `CNS(=O)(=O)c1ccc(Nc2cc(F)ccc2F)c(-c2nnn(C)n2)c1` [Compound 110, 4-((2,5-difluorophenyl)amino)-N-methyl-3-(2-methyl-2H-tetrazol-5-yl)benzenesulfonamide], the concentration for half-maximal inhibition (IC50) was not above 0.1 µM.

Take `CNS(=O)(=O)c1ccc(NC2CCCCC2)c(-c2cn(C3CC3)cn2)c1` [Compound 111, 4-(cyclohexylamino)-3-(1-cyclopropyl-1H-imidazol-4-yl)-N-methylbenzenesulfonamide]: the IC50 is not above 0.1 µM.

`CCn1cnc(-c2cc(S(=O)(=O)NC)ccc2NC2CCCCC2)c1` [Compound 112, 4-(cyclohexylamino)-3-(1-ethyl-1H-imidazol-4-yl)-N-methylbenzenesulfonamide]: the IC50 is not above 0.1 µM.
